Measurements as given in patent US8507489B2, “Bicyclic triazoles as protein kinase modulators” (SGX Pharmaceuticals, Inc., priority 2006, dated 2013).
pIC50: −log10 of the molar value.

Assays:
[1] = molecular target: c-MET (Homo sapiens, UniProt P08581); experiment: MET luminescence-based enzyme assay (Kinase-Glo); type: biochemical
Description: The subscript designates positive or negative controls. The Z′ score for a robust screening assay should be ≧0.50. The typical threshold=μ+−3*σ+. Any value that falls below the threshold was designated a “hit”.
MET Luminescence-Based Enzyme Assay
MET kinase (see below), Kinase-Glo™ (Promega Cat#V6712).
Negative controls contained 10 μM staurosporine.

[2] = molecular target: T1, TPR-MET Ba/F3 cells (Homo sapiens, UniProt P08581); experiment: 96-well XTT cell survival assay (Ba/F3 cells); type: cell-based; conditions: cells marked (BaF3), 72 hours; read-out: XTT Assay IC50 (BaF3)
T1 construct: TPR-MET Ba/F3 cells were created by stably transducing the human TPR-MET gene into Ba/F3 cells using a retroviral system; fused on or other part: P12270 (Nucleoprotein TPR)
Description: TPR-MET Ba/F3 cells were created by stably transducing the human TPR-MET gene into Ba/F3 cells using a retroviral system. All cell lines were grown in RPMI-1640 supplemented with 1× penicillin/streptomycin and 10% fetal bovine (Invitrogen, Carlsbad, Calif.). The cells were maintained in a 5% CO2 humidified incubator at 37° C.
Compounds were tested in the following assays in duplicate.
96-well XTT assay (Ba/F3 cells): Cells were grown in growth media containing various concentrations of compounds (duplicates) on a 96-well plate for 72 hours at 37° C. The starting cell number was 5000-8000 cells per well and volume was 120 μl. At the end of the 72-hour incubation, 40 μl of XTT labeling mixture (50:1 solution of sodium 3′-[1-(phenylamino-carbonyl)-3,4-tetrazolium]-bis(4-methoxy-6-nitro) benzene sulfonic acid hydrate and Electron-coupling reagent: PMS (N-methyl dibenzopyrazine methyl sulfate) were added to each well of the plate. After an additional 2-6 hours of incubation at 37° C., the absorbance reading at 405 nm with background correction at 650 nm was measured with a spectrophotometer.

T1 sequence (P08581 whole entry, change not shown, the tested form may be a part): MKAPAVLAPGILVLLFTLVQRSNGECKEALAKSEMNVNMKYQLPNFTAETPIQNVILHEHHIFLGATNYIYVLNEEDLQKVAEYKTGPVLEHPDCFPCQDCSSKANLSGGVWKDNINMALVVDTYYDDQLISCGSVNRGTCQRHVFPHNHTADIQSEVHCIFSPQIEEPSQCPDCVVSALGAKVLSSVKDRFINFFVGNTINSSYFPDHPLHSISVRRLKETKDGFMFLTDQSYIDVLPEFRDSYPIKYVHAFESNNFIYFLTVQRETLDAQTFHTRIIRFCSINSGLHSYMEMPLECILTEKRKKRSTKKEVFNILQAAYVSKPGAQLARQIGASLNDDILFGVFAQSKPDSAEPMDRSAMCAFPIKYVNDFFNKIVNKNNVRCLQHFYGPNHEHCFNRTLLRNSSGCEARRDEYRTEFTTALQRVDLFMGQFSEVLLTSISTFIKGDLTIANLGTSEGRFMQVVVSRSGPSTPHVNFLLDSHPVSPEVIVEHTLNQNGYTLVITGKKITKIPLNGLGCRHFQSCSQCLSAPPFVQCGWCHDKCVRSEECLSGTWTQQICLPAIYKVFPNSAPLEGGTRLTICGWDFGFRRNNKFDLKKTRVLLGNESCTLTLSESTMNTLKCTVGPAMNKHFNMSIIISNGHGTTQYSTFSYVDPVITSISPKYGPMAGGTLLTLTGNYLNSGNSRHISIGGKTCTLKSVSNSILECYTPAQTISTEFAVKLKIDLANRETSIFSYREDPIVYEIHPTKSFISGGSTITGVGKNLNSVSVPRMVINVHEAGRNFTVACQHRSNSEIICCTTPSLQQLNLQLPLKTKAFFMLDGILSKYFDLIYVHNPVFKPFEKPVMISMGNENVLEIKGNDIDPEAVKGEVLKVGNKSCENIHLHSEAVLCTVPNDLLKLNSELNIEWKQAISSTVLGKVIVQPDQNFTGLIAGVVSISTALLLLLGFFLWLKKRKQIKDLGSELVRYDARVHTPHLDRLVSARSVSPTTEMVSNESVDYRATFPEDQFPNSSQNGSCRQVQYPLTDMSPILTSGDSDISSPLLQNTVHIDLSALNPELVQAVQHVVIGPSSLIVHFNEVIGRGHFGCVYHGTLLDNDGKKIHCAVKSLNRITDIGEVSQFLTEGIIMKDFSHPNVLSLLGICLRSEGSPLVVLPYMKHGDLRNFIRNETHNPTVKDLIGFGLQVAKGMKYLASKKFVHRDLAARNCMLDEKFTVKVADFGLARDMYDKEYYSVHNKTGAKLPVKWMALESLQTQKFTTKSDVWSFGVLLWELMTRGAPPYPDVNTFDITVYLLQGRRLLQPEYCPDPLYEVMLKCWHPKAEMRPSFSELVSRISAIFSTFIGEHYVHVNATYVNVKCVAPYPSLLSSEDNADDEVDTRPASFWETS
Chain of c-MET (P08581 1078-1345 limits assumed): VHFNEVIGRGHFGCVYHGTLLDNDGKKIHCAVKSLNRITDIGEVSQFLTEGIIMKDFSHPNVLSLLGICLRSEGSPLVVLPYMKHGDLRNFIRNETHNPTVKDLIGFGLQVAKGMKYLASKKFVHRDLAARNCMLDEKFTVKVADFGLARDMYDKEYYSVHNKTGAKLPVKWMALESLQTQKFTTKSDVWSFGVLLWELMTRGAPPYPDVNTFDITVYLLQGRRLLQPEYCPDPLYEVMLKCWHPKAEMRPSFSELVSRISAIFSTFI

| SMILES | pIC50 [1] | GI50 [2] [nM] |
| --- | --- | --- |
| N#Cc1cccc(-c2ccc3nnc(Sc4ccc5ncccc5c4)n3n2)c1 [Compound 21, 3-[3-(Quinolin-6-ylsulfanyl)-[1,2,4]triazolo[4,3-b]pyridazin-6-yl]-benzonitrile] | > 7.00 | ≤ 100 |
| N#Cc1cccc(-c2ccc3nnc(Sc4ccc5ncsc5c4)n3n2)c1 [Compound 22, 3-[3-(Benzothiazol-6-ylsulfanyl)-[1,2,4]triazolo[4,3-b]pyridazin-6-yl]-benzonitrile] | > 7.00 | 100 to 1000 |
| N#Cc1cccc(-c2ccc3nnc(Sc4cc5cccnc5cc4F)n3n2)c1 [Compound 23, 3-[3-(7-Fluoro-quinolin-6-ylsulfanyl)-[1,2,4]triazolo[4,3-b]pyridazin-6-yl]-benzonitrile] | > 7.00 | ≤ 100 |

Now from value to molecule, other results behind:

| pIC50 [1] | SMILES | GI50 [2] [nM] |
| --- | --- | --- |
| > 7.00 | CNC(=O)c1ccc(-c2ccc3nnc(Sc4ccc5ncn(C)c5c4)n3n2)cc1F [Compound 19, 2-Fluoro-N-methyl-4-[3-(3-methyl-3H-benzoimidazol-5-ylsulfanyl)-[1,2,4]triazolo[4,3-b]pyridazin-6-yl]-benzamide] | ≤ 100 |
| > 7.00 | CNC(=O)c1ccc(-c2ccc3nnc(Sc4cc5scnc5cc4F)n3n2)cc1F [Compound 20] | ≤ 100 |
